{"source": "patent US8394969B2", "about": "“Cyclic benzimidazole derivatives useful as anti-diabetic agents” (Merck Sharp & Dohme Corp., priority 2008, dated 2013)", "note": "Where a name gives a salt, the structure may show the parent alone."}
{"molecular_target": "recombinant human AMPK complex 1 (containing α1β1γ1) (Homo sapiens, UniProt Q13131+Q9Y478)", "sequence (Q13131 whole entry)": "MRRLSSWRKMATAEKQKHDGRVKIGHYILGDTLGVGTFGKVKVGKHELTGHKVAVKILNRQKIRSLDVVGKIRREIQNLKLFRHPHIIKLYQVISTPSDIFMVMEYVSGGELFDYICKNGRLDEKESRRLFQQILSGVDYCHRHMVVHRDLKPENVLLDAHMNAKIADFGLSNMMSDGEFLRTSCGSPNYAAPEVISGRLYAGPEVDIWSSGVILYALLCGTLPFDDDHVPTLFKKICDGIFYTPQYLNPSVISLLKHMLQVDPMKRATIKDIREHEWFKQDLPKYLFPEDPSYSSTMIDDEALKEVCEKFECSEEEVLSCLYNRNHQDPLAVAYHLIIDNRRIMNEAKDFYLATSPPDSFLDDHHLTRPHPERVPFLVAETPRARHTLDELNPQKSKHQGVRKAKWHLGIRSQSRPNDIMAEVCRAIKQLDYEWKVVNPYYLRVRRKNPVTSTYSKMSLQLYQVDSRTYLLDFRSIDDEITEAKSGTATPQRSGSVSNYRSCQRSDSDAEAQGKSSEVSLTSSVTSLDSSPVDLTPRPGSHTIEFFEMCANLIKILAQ", "sequence (Q9Y478 whole entry)": "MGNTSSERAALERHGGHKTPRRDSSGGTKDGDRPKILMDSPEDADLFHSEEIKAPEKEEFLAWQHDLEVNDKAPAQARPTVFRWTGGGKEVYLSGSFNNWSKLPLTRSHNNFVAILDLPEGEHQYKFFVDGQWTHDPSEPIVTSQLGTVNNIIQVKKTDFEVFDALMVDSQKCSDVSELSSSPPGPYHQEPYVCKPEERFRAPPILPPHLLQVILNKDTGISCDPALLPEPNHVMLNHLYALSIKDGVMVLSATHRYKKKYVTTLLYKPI", "sequence (P54619 whole entry partner)": "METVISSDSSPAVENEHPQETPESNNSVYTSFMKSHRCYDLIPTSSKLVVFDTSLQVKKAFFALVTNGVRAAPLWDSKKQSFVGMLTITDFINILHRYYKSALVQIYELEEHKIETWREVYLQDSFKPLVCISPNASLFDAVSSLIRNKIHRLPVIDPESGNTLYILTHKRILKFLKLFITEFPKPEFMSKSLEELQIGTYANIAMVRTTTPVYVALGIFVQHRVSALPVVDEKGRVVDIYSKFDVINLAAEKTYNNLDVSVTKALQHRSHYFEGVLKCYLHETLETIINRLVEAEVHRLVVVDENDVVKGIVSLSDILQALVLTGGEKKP", "assay": "[…] (in vitro AMPK activation assay)", "type": "biochemical", "conditions": "not given", "procedure": "(§1) Recombinant viruses were generated by cotransfection of AMPK/pBacPak9 clones with Baculogold baculovirus DNA (Pharmingen) in spodoptera frugiperda 21 cells according to the manufacturer's instructions. Each round of virus amplification was performed for 5 days in Grace's medium containing 10% serum. Virus that had been subjected to three rounds of amplification was used for all protein production procedures. To express the AMPK complex, sf21 cells were adapted to serum free medium (SF900 II, Invitrogen) by sequential dilution from serum containing stocks into SF900 II medium and maintained in shaker flasks at 90 rpm at 27° C. The recombinant AMPK enzyme complex was produced by triple infection, one recombinant virus for each of the subunits, in sf21 cells under serum free conditions. […] Cells were harvested by centrifugation at 10,000×g for 15 minutes after 72 hours of infection with viruses. The insect cell pellet from 2 liters of culture was resuspended in 50 ml lysis buffer (20 mM Tris-HCl, 50 mM NaCl, 50 mM NaF, 30 mM Na PPi, 0.25 M sucrose, 10 mM ZnCl2, 2 mM DTT, 0.4 mg/ml digitonin) and subjected to two cycles of freeze-thaw lysis in a dry-ice ethanol bath. Insoluble material was removed by centrifugation at 10,000×g and the supernatant was fractionated with use of polyethylene glycol (PEG).\n(§2) The total in vitro AMPK activation assay volume is 50 μl in a 96-well plate. […] The reaction was initiated with addition of the enzyme. After 30-minute incubation at 30° C., the reaction was stopped by addition of 80 μl 1% H3PO4. Aliquots (100 μl) were transferred to 96-well MultiScreen plates (MAPHNOB50; Millipore Corp., Bedford, Mass., USA). The plate was washed three times with 1% H3PO4 followed by detection in a Top-count. The counts per minute from the basal activity (the reaction without activator) was subtracted from each well and the data were expressed as % maximum AMP activation followed by EC50 calculation.", "units": {"EC50": "nM"}}
{"smiles": "CCCc1ccc(-c2cc3nc(Oc4ccc(C)c(C(=O)O)c4)[nH]c3cc2Cl)cc1.N", "note": "[Example 348, Ammonium 5-{[6-chloro-5-(4-propylphenyl)-1H-benzimidazol-2-yl]oxy}-2-methylbenzoate]", "% Maximum AMP Activation of human AMPK Complex 1": "greater than 80%"}
{"smiles": "Cc1ccc(Oc2nc3cc(-c4ccc(-c5ccccc5)cc4)c(Cl)cc3[nH]2)cc1C(=O)O", "note": "[Example 1, 5-[(5-biphenyl-4-yl-6-chloro-1H-benzimidazol-2-yl)oxy]-2-methylbenzoic acid]", "EC50": 8}
{"molecular_target": "recombinant human AMPK complex 1 (containing α1β1γ1) (Homo sapiens, UniProt Q13131+Q9Y478)", "assay": "[…] (in vitro AMPK activation assay)", "type": "biochemical", "conditions": "recombinant human AMPK complex 1 (α1β1γ1); basal activity subtracted; read-out: % Maximum AMP Activation of human AMPK Complex 1", "procedure": "as §1, §2", "units": {"Emax": "%"}}
{"smiles": "O=C(O)Cn1nnc(-c2cccc(Oc3nc4cc(-c5ccc(-c6ccccc6)cc5)c(Cl)cc4[nH]3)c2)n1", "note": "[Example 40, {5-[3-(5-Biphenyl-4-yl-6-chloro-1H-benzoimidazol-2-yloxy)-phenyl]-tetrazol-2-yl}-acetic acid]", "Emax": "> 80"}
{"smiles": "Cc1ccc(Oc2nc3cc(C#Cc4ccc(-c5cscn5)cc4)c(Cl)cc3[nH]2)cc1C(=O)O", "note": "[Example 83, 5-[6-Chloro-5-(4-thiazol-4-yl-phenylethynyl)-1H-benzoimidazol-2-yloxy]-2-methyl-benzoic acid]", "Emax": "> 80"}
{"smiles": "Clc1cc2[nH]c(Oc3cccc(-c4nn[nH]n4)c3)nc2cc1-c1ccc(-c2ccccc2)cc1", "note": "[Example 33, 5-Biphenyl-4-yl-6-chloro-2-[3-(2H-tetrazol-5-yl)-phenoxy]-1H-benzoimidazol]", "Emax": "> 80"}
{"smiles": "Cc1ccc(Oc2nc3cc(-c4ccc5c(ccn5C)c4)c(F)cc3[nH]2)cc1C(=O)O", "note": "[Example 249, 5-[6-Fluoro-5-(1-methyl-1H-indol-5-yl)-1H-benzoimidazol-2-yloxy]-2-methyl-benzoic acid]", "Emax": "> 80"}
{"smiles": "Cc1ccc(Oc2nc3cc(-c4ccc(N(C)C)cc4)c(Cl)cc3[nH]2)cc1C(=O)O", "note": "[Example 318, 2-(3-carboxy-4-methylphenoxy)-6-chloro-5-[4-(dimethylamino)phen-yl]-1H-benzimidazol-3-ium chloride]", "Emax": "> 80"}
{"smiles": "Cc1ccc(Oc2nc3cc(-c4ccc5[nH]c(=O)ccc5c4)c(Cl)cc3[nH]2)cc1C(=O)O", "note": "[Example 233, 5-[6-Chloro-5-(2-oxo-1,2-dihydro-quinolin-6-yl)-1H-benzoimidazol-2-yloxy]-2-methyl-benzoic acid]", "Emax": "> 80"}
{"smiles": "O=C(O)c1cc(Oc2nc3cc(-c4ccc(-c5ccccc5O)cc4)c(Cl)cc3[nH]2)cc(C(=O)O)c1", "note": "[Example 54, 5-[6-Chloro-5-(2′-hydroxy-biphenyl-4-yl)-1H-benzoimidazol-2-yloxy]-isophthalic acid]", "Emax": "> 80"}
{"smiles": "Cc1ccc(Oc2nc3cc(-c4ccc5c(c4)c4c(n5C)CCC4)c(Cl)cc3[nH]2)cc1C(=O)O", "note": "[Example 281, 5-[6-Chloro-5-(4-methyl-1,2,3,4-tetrahydro-cyclopenta[b]indol-7-yl)-1H-benzoimidazol-2-yloxy]-2-methyl-benzoic acid]", "Emax": "> 80"}
{"smiles": "O=C(O)c1cc(Oc2nc3cc(-c4ccccc4)c(Cl)cc3[nH]2)ccc1Cl", "note": "[Example 61, 2-Chloro-5-(6-chloro-5-phenyl-1H-benzoimidazol-2-yloxy)-benzoic acid]", "Emax": "> 80"}
{"smiles": "COc1ccc2cc(-c3cc4nc(Oc5ccc(Cl)c(C(=O)O)c5)[nH]c4cc3Cl)ccc2c1", "note": "[Example 309, 2-Chloro-5-[6-chloro-5-(6-methoxy-naphthalen-2-yl)-1H-benzoimidazol-2-yloxy]-benzoic acid]", "Emax": "> 80"}
{"smiles": "COc1ccc(-c2ccc(-c3cc4nc(Oc5ccc(C)c(C(=O)O)c5)[nH]c4cc3Cl)cc2)cn1", "note": "[Example 201, 5-({6-chloro-5-[4-(6-methoxypyridin-3-yl)phenyl]-1H-benzimidazol-2-yl}oxy)-2-methylbenzoic acid]", "Emax": "> 80"}
{"smiles": "COC(=O)c1cc(Oc2nc3cc(-c4ccc(-c5ccccc5OC)cc4)c(Cl)cc3[nH]2)ccc1C", "note": "[Example 197, Methyl 5-{[6-chloro-5-(2′-methoxybiphenyl-4-yl)-1H-benzimidazol-2-yl]oxy}-2-methylbenzoate]", "Emax": "> 80"}
{"smiles": "COc1ccc(-c2ccc(-c3cc4nc(Oc5cc(C)c(C)c(C(=O)O)c5)[nH]c4cc3Cl)cc2)cn1", "note": "[Example 315, 5-{6-Chloro-5-[4-(6-methoxy-pyridin-3-yl)-phenyl]-1H-benzoimidazol-2-yloxy}-2,3-dimethyl-benzoic acid]", "Emax": "> 80"}
{"smiles": "Cc1cc(Oc2nc3cc(-c4ccc(-c5ccccc5)cc4)c(Cl)cc3[nH]2)cc(C(=O)O)c1", "note": "[Example 50, 3-(5-Biphenyl-4-yl-6-chloro-1H-benzoimidazol-2-yloxy)-5-methyl-benzoic acid]", "Emax": "> 80"}
{"smiles": "Cc1ccc(Oc2nc3cc(-c4ccc5[nH]cc(C)c5c4)c(Cl)cc3[nH]2)cc1C(=O)O", "note": "[Example 287, 5-[6-Chloro-5-(3-methyl-1H-indol-5-yl)-1H-benzoimidazol-2-yloxy]-2-methyl-benzoic acid]", "Emax": "> 80"}
{"smiles": "OCc1cccc(Oc2nc3cc(-c4ccc(-c5ccccc5)cc4)c(Cl)cc3[nH]2)c1", "note": "[Example 37, [3-(5-Biphenyl-4-yl-6-chloro-1H-benzoimidazol-2-yloxy)-phenyl]-methanol]", "Emax": "> 80"}
{"smiles": "Cc1ccc(Oc2nc3cc(-c4ccc5nncn5c4)c(Cl)cc3[nH]2)cc1C(=O)O", "note": "[Example 152, 5-(6-Chloro-5-[1,2,4]triazolo[4,3-a]pyridin-6-yl-1H-benzoimidazol-2-yloxy)-2-methyl-benzoic acid]", "Emax": "> 80"}
{"smiles": "Cc1ccc(Oc2nc3cc(C#Cc4cccc(Cl)c4)c(Cl)cc3[nH]2)cc1C(=O)O", "note": "[Example 110, 5-[6-Chloro-5-(3-chloro-phenylethynyl)-1H-benzoimidazol-2-yloxy]-2-methyl-benzoic acid]", "Emax": "> 80"}
{"smiles": "Cc1ccc(Oc2nc3cc(-c4ccc5c(c4)cc(C)n5C)c(Cl)cc3[nH]2)cc1C(=O)O", "note": "[Example 289, 5-[6-Chloro-5-(1,2-dimethyl-1H-indol-5-yl)-1H-benzoimidazol-2-yloxy]-2-methyl-benzoic acid]", "Emax": "> 80"}
{"smiles": "Cc1ccc(Oc2nc3cc(-c4ccc(-c5ccccc5)c(C)c4)c(Cl)cc3[nH]2)cc1C(=O)O", "note": "[Example 303, 5-[6-Chloro-5-(2-methyl-biphenyl-4-yl)-1H-benzoimidazol-2-yloxy]-2-methyl-benzoic acid]", "Emax": "> 80"}
{"smiles": "Cc1ccc(Oc2nc3cc(-c4ccc5c(c4)c(C)cn5C)c(Cl)cc3[nH]2)cc1C(=O)O", "note": "[Example 288, 5-[6-Chloro-5-(1,3-dimethyl-1H-indol-5-yl)-1H-benzoimidazol-2-yloxy]-2-methyl-benzoic acid]", "Emax": "> 80"}
{"smiles": "Cc1ccc(Oc2nc3cc(-c4ccc(CN(C)C)cc4)c(Cl)cc3[nH]2)cc1C(=O)O", "note": "[Example 294, {4-[2-(3-carboxy-4-methylphenoxy)-6-chloro-1H-benzimidazol-5-yl]phenyl}-N,N-dimethylmethanaminium trifluoroacetate]", "Emax": "> 80"}
{"molecular_target": "recombinant human AMPK complex 1 (containing α1β1γ1) (Homo sapiens, UniProt Q13131+Q9Y478)", "assay": "[…] (in vitro AMPK activation assay)", "type": "biochemical", "conditions": "recombinant human AMPK complex 1 (α1β1γ1); read-out: EC50", "procedure": "as §1, §2", "units": {"EC50": "nM"}}
{"smiles": "Cc1ccc(Oc2nc3cc(C#Cc4ccccc4F)c(Cl)cc3[nH]2)cc1C(=O)O", "note": "[Example 67, 5({6-chloro-5-[(2-fluorophenyl)ethynyl]-1H-benzimidazol-2-yl}oxy)-2-methylbenzoic acid]", "EC50": 3}
{"smiles": "Cc1ccc(Oc2nc3cc(-c4ccc(C5(CO)CC5)cc4)c(Cl)cc3[nH]2)cc1C(=O)O", "note": "[Example 262, 5-[(6-chloro-5-{4-[1-(hydroxymethyl)cyclopropyl]phenyl}-1H-benzimidazol-2-yl)oxy]-2-methylbenzoic acid]", "EC50": 3}
{"smiles": "Cc1ccc(Oc2nc3c(F)c(-c4ccc5c(ccn5C)c4)c(F)cc3[nH]2)cc1C(=O)O", "note": "[Example 228, 5-[4,6-Difluoro-5-(1-methyl-1H-indol-5-yl)-1H-benzoimidazol-2-yloxy]-2-methyl-benzoic acid]", "EC50": 2}
